# According to ChEMBL document CHEMBL4118195, “Synthesis and profiling of benzylmorpholine 1,2,4,5-tetraoxane analogue N205: Towards tetraoxane scaffolds with potential for single dose cure of malaria” (Bioorg Med Chem, 2018):
# Key:
# [1] = target: Cytochrome P450 2C19 (Homo sapiens, UniProt P33261); assay: Inhibition of CYP2C19 in human liver microsomes assessed as (S)-mephenytoin 4'-hydroxylation after 4 to 40 mins in presence of NADPH by LCMS analysis; format: ADME
# [2] = test system: Plasmodium falciparum; assay: Antimalarial activity against Plasmodium falciparum 3D7 infected in human erythrocytes after 48 hrs by SYBR Green I dye-based fluorescence assay; format: functional, organism-based; conditions: 3D7, 48 h
# [3] = Drug degradation in human liver microsomes assessed as compound half life at 1 uM by UPLC-MS method; format: ADME, microsome
# [4] = Drug degradation in mouse liver microsomes assessed as compound half life at 5 uM by UPLC-MS method; format: ADME, microsome
# [5] = Intrinsic clearance in human liver microsomes assessed per mg protein at 5 uM by UPLC-MS analysis; format: ADME, microsome; conditions: read-out: CLH
# [6] = Intrinsic clearance in rat liver microsomes assessed per mg protein at 5 uM by UPLC-MS analysis; format: ADME, microsome; conditions: read-out: CLH
# [7] = Drug metabolism in human liver microsomes assessed as metabolite M+16 (IV) formation at 5 uM after 60 mins by UPLC-MS analysis; format: ADME, microsome; conditions: 1 h
# [8] = Drug metabolism in mouse liver microsomes assessed as metabolite M+16 (IV) formation at 5 uM after 60 mins by UPLC-MS analysis; format: ADME, microsome; conditions: 1 h
# [9] = Drug metabolism in human liver microsomes assessed as metabolite M+32 (III) formation at 5 uM after 60 mins by UPLC-MS analysis; format: ADME, microsome; conditions: 1 h
# [10] = Drug metabolism in rat liver microsomes assessed as metabolite M+32 (IV) formation at 5 uM after 60 mins by UPLC-MS analysis; format: ADME, microsome; conditions: 1 h
# [11] = Drug metabolism in human liver microsomes at 5 uM after 60 mins by UPLC-MS analysis; format: ADME, microsome; conditions: read-out: Drug metabolism
# [12] = Drug metabolism in mouse liver microsomes assessed as ring dehydrogenated metabolite formation at 5 uM after 60 mins by UPLC-MS analysis; format: ADME, microsome; conditions: 1 h
# [13] = Drug metabolism in rat liver microsomes assessed as morpholine ring opened metabolite formation at 5 uM after 60 mins by UPLC-MS analysis; format: ADME, microsome; conditions: 1 h
# [14] = Drug metabolism in human liver microsomes assessed as morpholine dealkylated metabolite formation at 5 uM after 60 mins by UPLC-MS analysis; format: ADME, microsome; conditions: 1 h
# [15] = Drug metabolism in rat liver microsomes assessed as morpholine dealkylated metabolite formation at 5 uM after 60 mins by UPLC-MS analysis; format: ADME, microsome; conditions: 1 h
# [16] = Drug metabolism in mouse liver microsomes assessed as morpholine dealkylated metabolite formation at 5 uM after 60 mins by UPLC-MS analysis; format: ADME, microsome; conditions: 1 h
# [17] = Drug metabolism in human liver microsomes assessed as deaminated morpholine metabolite formation at 5 uM after 60 mins by UPLC-MS analysis; format: ADME, microsome; conditions: 1 h
# [18] = Drug metabolism in mouse liver microsomes assessed as deaminated morpholine metabolite formation at 5 uM after 60 mins by UPLC-MS analysis; format: ADME, microsome; conditions: 1 h
# [19] = Drug metabolism in rat liver microsomes assessed as cleaved morpholine ring metabolite formation at 5 uM after 60 mins by UPLC-MS analysis; format: ADME, microsome; conditions: 1 h
# [20] = Drug metabolism in mouse liver microsomes assessed as cleaved morpholine ring metabolite formation at 5 uM after 60 mins by UPLC-MS analysis; format: ADME, microsome; conditions: 1 h
# [21] = Drug metabolism in mouse liver microsomes assessed as bis-oxygenation and dehydrogenation metabolite formation at 5 uM after 60 mins by UPLC-MS analysis; format: ADME, microsome; conditions: 1 h
# [22] = target: Cytochrome P450 2D6 (Homo sapiens, UniProt P10635); assay: Inhibition of CYP2D6 in human liver microsomes assessed as dextromethorphan O-demethylation after 4 to 40 mins in presence of NADPH by LCMS analysis
# [23] = test system: Mus musculus; assay: Dose normalized Cmax in humanized NOD.Cg-Prkdcscid Il2rgtm1Wjl/SzJ mouse infected with Plasmodium falciparum Pf3D70087/N9 at 5 mg/kg, po administered as single dose after 0.25 to 23 hrs by LC-MS/MS analysis; format: ADME, organism-based; conditions: in vivo
# [24] = Tmax in humanized NOD.Cg-Prkdcscid Il2rgtm1Wjl/SzJ mouse infected with Plasmodium falciparum Pf3D70087/N9 at 30 mg/kg, po administered as single dose by LC-MS/MS analysis; format: ADME, organism-based; conditions: in vivo
# [25] = Tmax in humanized NOD.Cg-Prkdcscid Il2rgtm1Wjl/SzJ mouse infected with Plasmodium falciparum Pf3D70087/N9 at 100 mg/kg, po administered as single dose by LC-MS/MS analysis; format: ADME, organism-based; conditions: in vivo
# [26] = AUC (0 to t) in humanized NOD.Cg-Prkdcscid Il2rgtm1Wjl/SzJ mouse infected with Plasmodium falciparum Pf3D70087/N9 at 5 mg/kg, po administered as single dose by LC-MS/MS analysis; format: ADME, organism-based; conditions: in vivo
# [27] = AUC (0 to t) in humanized NOD.Cg-Prkdcscid Il2rgtm1Wjl/SzJ mouse infected with Plasmodium falciparum Pf3D70087/N9 at 15 mg/kg, po administered as single dose by LC-MS/MS analysis; format: ADME, organism-based; conditions: in vivo
# [28] = AUC (0 to t) in humanized NOD.Cg-Prkdcscid Il2rgtm1Wjl/SzJ mouse infected with Plasmodium falciparum Pf3D70087/N9 at 100 mg/kg, po administered as single dose by LC-MS/MS analysis; format: ADME, organism-based; conditions: in vivo
# Chain of Cytochrome P450 2C19 (P33261 whole entry): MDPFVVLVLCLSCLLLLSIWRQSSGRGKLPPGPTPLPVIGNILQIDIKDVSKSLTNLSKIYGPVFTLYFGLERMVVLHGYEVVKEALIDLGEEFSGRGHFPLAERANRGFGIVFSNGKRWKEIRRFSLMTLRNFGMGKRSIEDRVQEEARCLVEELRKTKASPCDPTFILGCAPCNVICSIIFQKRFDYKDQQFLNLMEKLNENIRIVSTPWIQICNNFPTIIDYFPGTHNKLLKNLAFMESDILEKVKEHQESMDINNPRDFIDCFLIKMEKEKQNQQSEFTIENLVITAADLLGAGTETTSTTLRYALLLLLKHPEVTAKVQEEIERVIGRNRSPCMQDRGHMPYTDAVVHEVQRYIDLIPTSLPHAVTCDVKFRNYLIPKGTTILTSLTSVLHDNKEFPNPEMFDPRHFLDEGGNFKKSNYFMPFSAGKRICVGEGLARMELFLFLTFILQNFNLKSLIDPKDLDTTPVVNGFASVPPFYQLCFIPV
# Chain of Cytochrome P450 2D6 (P10635 whole entry): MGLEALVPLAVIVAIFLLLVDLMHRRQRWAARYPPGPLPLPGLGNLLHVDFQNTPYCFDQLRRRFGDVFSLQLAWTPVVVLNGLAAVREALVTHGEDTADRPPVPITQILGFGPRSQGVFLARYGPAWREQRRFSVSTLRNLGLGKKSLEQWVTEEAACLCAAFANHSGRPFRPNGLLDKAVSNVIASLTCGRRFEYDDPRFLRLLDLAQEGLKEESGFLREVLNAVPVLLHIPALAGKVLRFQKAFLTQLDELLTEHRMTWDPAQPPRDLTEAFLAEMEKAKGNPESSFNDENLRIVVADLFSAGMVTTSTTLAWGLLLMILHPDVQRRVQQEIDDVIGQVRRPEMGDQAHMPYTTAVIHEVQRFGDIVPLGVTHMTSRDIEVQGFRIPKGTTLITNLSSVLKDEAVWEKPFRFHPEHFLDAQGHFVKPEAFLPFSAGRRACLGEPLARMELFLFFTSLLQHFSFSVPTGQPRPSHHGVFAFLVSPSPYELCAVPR
structure (smiles),measurement,setting,value
c1cc(C2CCC3(CC2)OOC2(OO3)C3CC4CC(C3)CC2C4)ccc1CN1CCOCC1 (stereo not drawn),IC50,[1],> 20 µM
same,IC50,[2],0.0013 µM
same,half-life at 1 µM,[3],34 min
same,half-life at 5 µM,[4],87 min
same,microsomal CLint at 5 µM,[5],41 µL/min/mg
same,microsomal CLint at 5 µM,[6],89 µL/min/mg
same,Drug metabolism,[7],Metabolite_Notdetected
same,Drug metabolism,[8],Metabolite_Detected
same,Drug metabolism,[9],Metabolite_Notdetected
same,Drug metabolism,[10],Metabolite_Detected
same,"metabolised at 1 h, 5 µM",[11],63%
same,Drug metabolism,[12],Metabolite_Notdetected
same,Drug metabolism,[13],Metabolite_Notdetected
same,Drug metabolism,[14],Metabolite_Notdetected
same,Drug metabolism,[15],Metabolite_Notdetected
same,Drug metabolism,[16],Metabolite_Notdetected
same,Drug metabolism,[17],Metabolite_Notdetected
same,Drug metabolism,[18],Metabolite_Notdetected
same,Drug metabolism,[19],Metabolite_Notdetected
same,Drug metabolism,[20],Metabolite_Notdetected
same,Drug metabolism,[21],Metabolite_Notdetected
same,IC50,[22],> 20 µM
same,Cmax/dose,[23],0.0218 µg/mL/mg/kg
same,Tmax,[24],60 min
same,Tmax,[25],30 min
same,AUC(0-t),[26],1280 ng·h/mL
same,AUC(0-t),[27],749 ng·h/mL
same,AUC(0-t),[28],2320 ng·h/mL
